Experimental data published in patent EP3366695B1, “SAPOSIN-A DERIVED PEPTIDES AND USES THEREOF” (Children's Medical Center Corporation, priority 2009, dated 2021).

Experiments:
MDM2 = MDM2 protein levels in WI-38 fibroblasts, western blot; type: cell-based, human; settings: cyclic 13-mer plus D4476
p53 [1] = experiment: p53 expression in WI-38 fibroblasts, western blot; type: cell-based, human; settings: cyclic 13-mer plus D4476
Tsp-1 [2] = experiment: Tsp-1 expression in WI-38 lung fibroblasts, western blot; type: cell-based, human
Description: For Western blotting, cells were harvested by mechanical scraping into 4°C PBS, cell pellets were obtained by removing PBS after centrifugation at 13,000rpm in a Heraeus Biofuge Fresco (Thermo Electron, Asheville, NC) for 2 min. Cells were then lysed in 50 mM Tris-HCl (pH 7.4), 150 mM NaCl, 1 % NP40, 1 mM sodium orthovanadate, 5 mM NaF, 20 mM β-glycerophosphate, and complete protease inhibitor (Roche, Indianapolis, IN) and protein concentrations were determined by the BioRad protein assay (BioRad, Hercules, CA). Fifty micrograms of protein were loaded per well onto a 4-12 % pre-cast Bis-Tris gel (BioRad, Hercules, CA). The protein extracts were electrophoresed and transferred to an immobilon-P membrane (Millipore, Bedford, MA). The membranes were blocked in 5 % nonfat milk and incubated in primary antibody to Tsp-1 (Ab-11, LabVision, Fremont, CA), c-Myc and phospho-Myc (Cell Signaling Technology, Beverly, MA), Prosaposin (Santa Cruz Biotechnology, Santa Cruz, CA), β-actin (AbCam, Cambridge, UK). […] Protein volume intensity was determined using a Bio-Rad Chemi-Doc XRS system (Bio-Rad, CA). […]
Seven 20-amino acid (20-mer) peptides derived from saposin A were tested for ability to stimulate Tsp-1 expression in fibroblasts. […] WI-38 lung fibroblasts were treated with these peptides overnight and the Tsp-1 expression was analyzed by Western blot analysis. […]

p53 [3] = experiment: p53 expression in prostate fibroblasts, western blot; type: cell-based, human; settings: PC3 conditioned media in the presence of the inhibitor
Description: (§1) Methods of assaying the effects of mutant, fragment or variant Psap on Tsp-1 and p53 expression are described herein. Briefly, full-length, mutant, fragment and variant Psap are applied to the cell cultures prostate fibroblast. The conditioned media from PC3M-LN4 (LN4) and PC3 cells are used as controls, with PC3 as positive/stimulating control and LN4 as negative/inhibiting controls. After a period of […] (∼16 h), the cells are harvested, rinsed, and lysed. The lysates are analyzed for the level of Tsp-1 and p53 expression by western blot analyses, with β-actin as the internal lysate protein loading control. […]
(§2) For Western blotting, cells were harvested by mechanical scraping into 4°C PBS, cell pellets were obtained by removing PBS after centrifugation at 13,000rpm in a Heraeus Biofuge Fresco (Thermo Electron, Asheville, NC) for 2 min. Cells were then lysed in 50 mM Tris-HCl (pH 7.4), 150 mM NaCl, 1 % NP40, 1 mM sodium orthovanadate, 5 mM NaF, 20 mM β-glycerophosphate, and complete protease inhibitor (Roche, Indianapolis, IN) and protein concentrations were determined by the BioRad protein assay (BioRad, Hercules, CA). […] Protein volume intensity was determined using a Bio-Rad Chemi-Doc XRS system (Bio-Rad, CA).

Tsp-1 [4] = experiment: Tsp-1 expression in prostate fibroblasts, western blot; type: cell-based, human; settings: PC3 conditioned media in the presence of the inhibitor
Description: as §1, §2

thrombospondin-1 (Tsp-1) = experiment: Tsp-1 expression in lungs and livers of treated mice, western blot; type: in vivo
Description: The 20-mer […] (SEQ. ID. No. 29) was tested in vivo in mice for their ability to induce Tsp-1 expression. Four mice were treated with the 20-amino acid peptide (residues 31-50 of saposin A) at a dose of 30mg/kg/day in combination with 200uL of conditioned media (CM) from the metastatic prostate cancer cell line PC3M-LN4. […] Another four mice were treated with CM from PC3M-LN4 alone, and a control group of four mice with treated with vehicle (PBS) alone. […] Mice were treated for 9 days after which they were sacrificed and the lungs and livers were harvested and lysed. Tissue lysates were then run on a 4-12% gradient bis-tris polyacrylamide gel and transferred to a nitrocellulose membrane for western blotting with antibodies specific for thrombospondin-1 (Tsp-1) and β-actin.

[5] = mice treated for 9 days, relative to control (vehicle PBS)
[6] = mice, 30mg/kg/day with 200uL PC3M-LN4 CM, 9 days, compared to PC3M-LN4 CM

## NC(=O)c1ccc(-c2nc(-c3ccc4c(c3)OCCO4)c(-c3ccccn3)[nH]2)cc1 [D4476]
MDM2
  MDM2 protein levels: increase in MDM2 protein levels
p53 [1]
  p53 protein levels: reduction of Tsp-1 and p53
Tsp-1 [2]; WI-38 fibroblasts, cyclic 13-mer plus D4476
  Tsp-1 protein levels: reduction of Tsp-1 and p53

## COc1ccc2c(c1)c(C1=C(c3c[nH]c4ccccc34)C(=O)NC1=O)cn2CCCN(C)C [Gö 6983]
p53 [3]
  stimulation of p53 by PC3 CM: abolished the stimulation of Tsp-1 and p53
Tsp-1 [4]
  stimulation of Tsp-1 by PC3 CM: abolished the stimulation of Tsp-1 and p53

## LEKTCDWLPKPNMSASCKEI [20-mer, 20-mer peptide, residues 31-50 of saposin A]
Tsp-1 [2]; WI-38 fibroblasts treated with peptide
  Tsp-1 expression: able to stimulate Tsp-1 expression
thrombospondin-1 (Tsp-1); [5]
  Tsp-1 expression in the liver: stimulated Tsp-1 expression over control
  Tsp-1 expression in the lung: stimulated Tsp-1 expression over control
thrombospondin-1 (Tsp-1); [6]
  stimulated expression of Tsp-1 in the liver: 4 fold
  stimulated expression of Tsp-1 in the lung: 6 fold
thrombospondin-1 (Tsp-1); mice, 9 days, compared with positive control PC3 conditioned media
  level of stimulation of Tsp-1: greater than that of the weakly metastatic pancreatic cancer cell line PC3
